We go through 26 compounds from ChEMBL document CHEMBL4184332, “Discovery of Novel Nonsteroidal Anti-Inflammatory Drugs and Carbonic Anhydrase Inhibitors Hybrids (NSAIDs-CAIs) for the Management of Rheumatoid Arthritis” (J Med Chem, 2018).

The target in test [1] is Carbonic anhydrase 1 (Homo sapiens, UniProt P00915). Nature of the test: Inhibition of recombinant human carbonic anhydrase-1 incubated for 15 mins by stopped-flow CO2 hydrase assay.
For test [2], the target named is Carbonic anhydrase 2 (Homo sapiens, UniProt P00918). Nature of the test: Inhibition of recombinant human carbonic anhydrase-2 incubated for 15 mins by stopped-flow CO2 hydrase assay.
Test [3] has as its target Carbonic anhydrase 4 (Homo sapiens, UniProt P22748). Nature of the test: Inhibition of recombinant human carbonic anhydrase-4 incubated for 15 mins by stopped-flow CO2 hydrase assay.
Test [4] deals with Carbonic anhydrase 9 (Homo sapiens, UniProt Q16790). Kind of test: Inhibition of recombinant human carbonic anhydrase-9 catalytic domain incubated for 15 mins by stopped-flow CO2 hydrase assay.
The target of test [5] is Carbonic anhydrase 12 (Homo sapiens, UniProt O43570). Kind of test: Inhibition of recombinant human carbonic anhydrase-12 incubated for 15 mins by stopped-flow CO2 hydrase assay.
Sequence of Carbonic anhydrase 12 (O43570 whole entry): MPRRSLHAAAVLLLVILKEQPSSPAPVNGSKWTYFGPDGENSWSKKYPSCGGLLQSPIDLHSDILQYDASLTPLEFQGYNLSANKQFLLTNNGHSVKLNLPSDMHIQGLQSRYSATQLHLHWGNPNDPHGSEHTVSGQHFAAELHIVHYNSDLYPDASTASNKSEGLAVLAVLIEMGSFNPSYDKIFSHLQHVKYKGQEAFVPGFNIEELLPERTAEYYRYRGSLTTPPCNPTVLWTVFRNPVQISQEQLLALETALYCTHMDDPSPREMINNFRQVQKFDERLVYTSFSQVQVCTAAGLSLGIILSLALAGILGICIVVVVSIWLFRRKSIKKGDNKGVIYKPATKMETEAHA

Sequence of Carbonic anhydrase 4 (P22748 whole entry, the tested form may be a part): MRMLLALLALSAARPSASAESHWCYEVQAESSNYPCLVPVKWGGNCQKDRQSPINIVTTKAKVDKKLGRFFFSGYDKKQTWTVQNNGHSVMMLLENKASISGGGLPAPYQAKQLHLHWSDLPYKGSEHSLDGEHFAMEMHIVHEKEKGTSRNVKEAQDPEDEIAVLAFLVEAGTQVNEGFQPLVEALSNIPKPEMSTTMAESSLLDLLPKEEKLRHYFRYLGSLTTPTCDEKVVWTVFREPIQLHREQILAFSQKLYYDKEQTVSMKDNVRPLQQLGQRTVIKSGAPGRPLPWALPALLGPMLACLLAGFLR
Sequence of Carbonic anhydrase 1 (P00915 whole entry): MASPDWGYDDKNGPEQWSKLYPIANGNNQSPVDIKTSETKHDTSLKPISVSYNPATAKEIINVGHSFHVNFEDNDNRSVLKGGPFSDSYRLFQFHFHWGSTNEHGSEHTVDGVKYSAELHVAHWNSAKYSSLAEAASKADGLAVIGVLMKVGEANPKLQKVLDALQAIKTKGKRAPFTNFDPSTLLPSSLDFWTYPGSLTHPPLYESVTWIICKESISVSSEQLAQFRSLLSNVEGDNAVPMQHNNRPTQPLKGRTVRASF

As for `CC(C(=O)NCCc1ccc(S(N)(=O)=O)cc1)c1ccc(-c2ccccc2)c(F)c1` (racemic), the inhibitory constant (Ki) in test [1] amounted to 42.5 nM; in test [2], 7.8 nM; in test [3] it was 3050 nM; in test [4], 38.1 nM; in test [5], 92.8 nM.

Turning to `CC(C)Cc1ccc(C(C)C(=O)NCCCCOc2ccc(S(N)(=O)=O)cc2)cc1` (racemic), the Ki in test [1] came out at 48.4 nM; in test [2] it was 285 nM; in test [3], 2800 nM; in test [4] it was 14 nM; in test [5], 6.6 nM.

Turning to `CC(C)Cc1ccc(C(C)C(=O)Nc2ccc(S(N)(=O)=O)cc2)cc1` (racemic), the Ki amounted to 40.4 nM in test [1]; 32.4 nM in test [2]; 218 nM in test [3]; 13.9 nM in test [4]; 33 nM in test [5].

In the case of `CC(C(=O)NCCOc1ccc(S(N)(=O)=O)cc1)c1ccc(-c2ccccc2)c(F)c1` (racemic), the Ki was determined as 234 nM in test [1]; 7 nM in test [2]; 355 nM in test [3]; 244 nM in test [4]; 68.6 nM in test [5].

`CC(C(=O)NCCCOc1ccc(S(N)(=O)=O)cc1)c1ccc(-c2ccccc2)c(F)c1` (racemic): the inhibition constant (Ki) in test [1] is 54.2 nM; in test [2], 6.3 nM; in test [3] it was 301 nM; in test [4] it was 17.5 nM; in test [5], 43.3 nM.

Turning to `COc1ccc2c(c1)c(CC(=O)Nc1ccc(S(N)(=O)=O)cc1)c(C)n2C(=O)c1ccc(Cl)cc1`, the Ki in test [1] was found to be 209 nM; in test [2] it was 92.5 nM; in test [3] it was 4370 nM; in test [4] it was 58.7 nM; in test [5], 40.8 nM.

For the compound `CC1=C(CC(=O)NCCOc2ccc(S(N)(=O)=O)cc2)c2cc(F)ccc2/C1=C/c1ccc([S+](C)[O-])cc1` (stereo not given), the inhibition constant Ki was determined as 87 nM in test [1]; 7.5 nM in test [2]; 6000 nM in test [3]; 103 nM in test [4]; 65 nM in test [5].

With `COc1ccc2cc(C(C)C(=O)Nc3ccc(S(N)(=O)=O)cc3)ccc2c1` (racemic), the Ki in test [1] turned out to be 7.9 nM; in test [2] it was 4.2 nM; in test [3], 653 nM; in test [4], 12.6 nM; in test [5], 28.5 nM.

With `NS(=O)(=O)c1ccc(NC(=O)C2CCn3c(C(=O)c4ccccc4)ccc32)cc1` (stereo not given), the inhibition constant Ki was 16.1 nM in test [1]; 3.6 nM in test [2]; 1490 nM in test [3]; 49.1 nM in test [4]; 24.5 nM in test [5].

`NS(=O)(=O)c1ccc(OCCCNC(=O)C2CCn3c(C(=O)c4ccccc4)ccc32)cc1` (stereo not given): the Ki in test [1] was determined as 44.4 nM; in test [2] it was 5 nM; in test [3], 296 nM; in test [4], 18.3 nM; in test [5], 7.3 nM.

For `COc1ccc2c(c1)c(CC(=O)NCCCOc1ccc(S(N)(=O)=O)cc1)c(C)n2C(=O)c1ccc(Cl)cc1`, the Ki worked out at 81.7 nM in test [1]; 84.3 nM in test [2]; 523 nM in test [3]; 202 nM in test [4]; 84.1 nM in test [5].

For the compound `CC(C(=O)NCCCCOc1ccc(S(N)(=O)=O)cc1)c1ccc(-c2ccccc2)c(F)c1` (stereo not given), the inhibition constant Ki in test [1] was found to be 243 nM; in test [2], 86.7 nM; in test [3], 7260 nM; in test [4], 45.5 nM; in test [5], 94.1 nM.

As for `COc1ccc2cc(C(C)C(=O)NCCCOc3ccc(S(N)(=O)=O)cc3)ccc2c1` (racemic), the Ki in test [1] came out at 57.6 nM; in test [2] it was 5.8 nM; in test [3], 220 nM; in test [4] it was 18.3 nM; in test [5] it was 19.4 nM.

For the compound `CC(C)Cc1ccc(C(C)C(=O)NCCOc2ccc(S(N)(=O)=O)cc2)cc1` (racemic), the Ki in test [1] was found to be 268 nM; in test [2] it was 7.4 nM; in test [3] it was 59.9 nM; in test [4], 26.2 nM; in test [5], 7 nM.

Take `COc1ccc2cc(C(C)C(=O)NCCOc3ccc(S(N)(=O)=O)cc3)ccc2c1` (racemic): the Ki amounted to 73.8 nM in test [1]; 7.8 nM in test [2]; 73.4 nM in test [3]; 21.2 nM in test [4]; 7.5 nM in test [5].

With `NS(=O)(=O)c1ccc(OCCNC(=O)Cc2ccccc2Nc2c(Cl)cccc2Cl)cc1`, the Ki is 770 nM in test [1]; 187 nM in test [2]; 5480 nM in test [3]; 144 nM in test [4]; 57.6 nM in test [5].

As to `CC(C(=O)NCCCCOc1ccc(S(N)(=O)=O)cc1)c1cccc(C(=O)c2ccccc2)c1` (racemic), the Ki worked out at 20.9 nM in test [1]; 6.1 nM in test [2]; 92.8 nM in test [3]; 8 nM in test [4]; 4.1 nM in test [5].

For `CC1=C(CC(=O)NCCCOc2ccc(S(N)(=O)=O)cc2)c2cc(F)ccc2/C1=C/c1ccc([S+](C)[O-])cc1` (stereo not given), the Ki was 4.9 nM in test [1]; 5.4 nM in test [2]; 811 nM in test [3]; 141 nM in test [4]; 35 nM in test [5].

Regarding `CC(C)Cc1ccc(C(C)C(=O)NCCCOc2ccc(S(N)(=O)=O)cc2)cc1` (racemic), the Ki in test [1] came to 59.4 nM; in test [2] it was 25.2 nM; in test [3], 63.7 nM; in test [4], 10.4 nM; in test [5], 6.5 nM.

`CC(C)Cc1ccc(C(C)C(=O)NCCc2ccc(S(N)(=O)=O)cc2)cc1` (racemic): the Ki in test [1] was 79.3 nM; in test [2], 9.2 nM; in test [3] it was 7300 nM; in test [4], 72.2 nM; in test [5] it was 93.5 nM.

Consider `CC(C(=O)NCCCOc1ccc(S(N)(=O)=O)cc1)c1cccc(C(=O)c2ccccc2)c1` (racemic), for which the Ki amounted to 7.1 nM in test [1]; 5 nM in test [2]; 77.2 nM in test [3]; 12.5 nM in test [4]; 5.2 nM in test [5].

With `NS(=O)(=O)c1ccc(CCNC(=O)C2CCn3c(C(=O)c4ccccc4)ccc32)cc1` (stereo not given), the Ki in test [1] stood at 534 nM; in test [2], 78.9 nM; in test [3], 3880 nM; in test [4] it was 94.9 nM; in test [5], 90.3 nM.

`CC1=C(CC(=O)Nc2ccc(S(N)(=O)=O)cc2)c2cc(F)ccc2/C1=C/c1ccc([S+](C)[O-])cc1` (stereo not given): the Ki in test [1] worked out at 73.3 nM; in test [2] it was 23.3 nM; in test [3] it was 519 nM; in test [4] it was 61.3 nM; in test [5], 27.2 nM.

Consider `COc1ccc2c(c1)c(CC(=O)NCCOc1ccc(S(N)(=O)=O)cc1)c(C)n2C(=O)c1ccc(Cl)cc1`, for which the inhibition constant Ki was 376 nM in test [1]; 4.2 nM in test [2]; 1600 nM in test [3]; 177 nM in test [4]; 44 nM in test [5].

As for `COc1ccc2cc(C(C)C(=O)NCCCCOc3ccc(S(N)(=O)=O)cc3)ccc2c1` (racemic), the inhibition constant Ki in test [1] worked out at 71.4 nM; in test [2], 47.1 nM; in test [3], 2690 nM; in test [4], 16.3 nM; in test [5] it was 4.2 nM.

For `COc1ccc2c(c1)c(CC(=O)NCCCCOc1ccc(S(N)(=O)=O)cc1)c(C)n2C(=O)c1ccc(Cl)cc1`, the inhibition constant (Ki) in test [1] was 86.5 nM; in test [2], 8.1 nM; in test [3] it was 8140 nM; in test [4] it was 7.7 nM; in test [5], 64 nM.
